Assays:
Type in all cases: in vivo, human
granulocytes = assay: Apoptotic cells by morphology of blood smears; conditions: healthy volunteers, azithromycin 3×500 mg, baseline 0.333 ± 0.655
Description: (§1) A trial on healthy volunteers was conducted and the influence of azithromycin given in a dosage of 3×500 mg on selected inflammation-relevant parameters was followed up.
(§2) Each subject received two standard 250 mg capsules of azithromycin (Sumamed®, PLIVA Zagreb) on three consecutive days. Immediately before the treatment and 2 h and 30 min, 24 h and 28 days after the third and last dose of azithromycin blood was collected from the cubital vein into EDTA-containing tubes. Aliquots were taken for cell counting, smear preparation, polymorphonuclear cell and serum isolation.
Three-day administration of azithromycin exerted a delayed pro-apoptotic effect on granulocytes, as indicated by morphology of blood smears. The number of apoptotic cells counted increased continuously after the three day dosing with azithromycin, achieving statistical significance 28 days after the last dose.

neutrophils = assay: fMLP-stimulated neutrophil oxidative burst, cytochrome c assay; conditions: healthy volunteers, azithromycin 3×500 mg, baseline 0.020 ± 0,014, absorbances 550 nm and 540 nm
Description: as §1, §2
Neutrophils were incubated with cytochrome c and stimulated with fMLP (Cohen and Chovaniec, 1978, J. Clin. Invest. 61: 1081-1087). Absorbances at 550 nm and 540 nm were recorded and the results were expressed as delta A.

GRO-α = assay: Serum GRO-α concentration, ELISA; conditions: healthy volunteers, azithromycin 3×500 mg, baseline 124.1 ± 33.02
Description: as §1, §2
Cytokine and chemokine concentrations were determined using ELISA kits. […] Rapid and pronounced decreases in the plasma concentrations of the neutrophil-stimulating chemokine, IL-8, and GR0-α were observed 2 h and 30 min and 24 h after the last dose of azithromycin (Table 1. The concentration of IL-8 returned essentially to baseline after 28 days, while that of GRO-[…] was decreased at this time.

stimulated neutrophils = assay: fMLP-stimulated neutrophil oxidative burst, luminol chemiluminescence; conditions: healthy volunteers, azithromycin 3×500 mg, baseline 29335 ± 1957
Description: as §1, §2
The generation of reactive oxygen species by activated cells is frequently determined by the measurement of chemiluminescence (CL). The radical species formed react with a photon-producing chemical (e.g. Luminol) and the resulting light emission is measured with a photocell. Chemiluminescence is detectable as a result of the stimulation (e.g. fMLP) of leucocytes and is a measure of their oxidative cytotoxic activity (Allen et al., Biochem. Biophys. Res. Commun. (1972), 47: 679).
The results of the study presented in Table 1 show, that azithromycin inhibits chemiluminescence generated from stimulated neutrophils isolated from the blood of humans treated with azithromycin.

[1] = system: glutathione peroxidase (GSHPx); assay: Glutathione peroxidase activity in PMN lysates (RANSEL kit); conditions: healthy volunteers, azithromycin 3×500 mg, baseline 5.3 ± 2.0
Description: as §1, §2
Cellular glutathione peroxidase (GSHPx) is a tetrameric protein in which each of the four identical subunits contains one atom of selenium (Se) in the form of selenocysteine at the active site (Misso et al., J. Leukoc. Biol. (1998), 63: 124-130). GSHPx plays a role in H202 detoxification and converts lipid hydroperoxides to nontoxic alcohols (Akkus et al., Clin. Chim. Acta (1996), 244: 221-227); Urban et al., Biomed & Pharmacother. (1997), 51: 388-390). In this study, in healthy volunteers treated with azithromycin alterations in the PMN intracellular GSHPx activity were determined using the commercially available kit RANSEL (Randox Laboratories). GSHPx catalyses the oxidation of glutathione by cumene hydroperoxide. In the presence of glutathione reductase and NADPH the oxidised glutathione is immediately converted to the reduced form with a concomitant oxidation of NADPH to NADP^+. The decrease in absorbance at 340 nm is measured.

glutathione reductase = assay: Glutathione reductase activity in PMN lysates (BIOXYTECH GR-340); conditions: healthy volunteers, azithromycin 3×500 mg, baseline 9.63 ± 1.16
Description: as §1, §2
Glutathione reductase is an ubiquitous enzyme that catalyses the reduction of oxidised glutathione (GSSG) to glutathione (GSH). Glutathione reductase is essential for the glutathione redox cycle that maintains adequate levels of reduced cellular GSH. GSH serves as an antioxidant, reacting with free radicals and organic peroxides, in amino acid transport, and as a substrate for the GSHPx and glutathione S-transferases in the detoxification of organic peroxides and metabolism of xenobiotics. Glutathione reductase was determined using the BIOXYTECH® GR-340™ colorimetric assay for glutathione reductase (OXIS International, Inc.). Briefly, oxidation of NADPH to NADP^+ is catalysed by a limiting concentration of glutathione reductase.

CC[C@H]1OC(=O)[C@H](C)[C@@H](O[C@H]2C[C@@](C)(OC)[C@@H](O)[C@H](C)O2)[C@H](C)[C@@H](O[C@@H]2O[C@H](C)C[C@H](N(C)C)[C@H]2O)[C@](C)(O)C[C@@H](C)CN(C)[C@H](C)[C@@H](O)[C@]1(C)O [azithromycin, 9-deoxo-9-dihydro-9a-methyl-9a-aza-9a-homoerythromycin A]
APOPTOSIS (WBC) (granulocytes; 2 h and 30 min after last dose): 0.833 ± 1.029 apoptopic cells/1000 WBC | APOPTOSIS (WBC) (granulocytes; 24 hours after last dose): 1.417 ± 1.240 apoptopic cells/1000 WBC | APOPTOSIS (WBC) (granulocytes; 28 days after last dose): 2.583 ± 2.02 apoptopic cells/1000 WBC | OXIDATIVE BURST (PMN) fMLP-cytochrom c (neutrophils; 2 h and 30 min after last dose): 0,007 ± 0.015 ΔA | OXIDATIVE BURST (PMN) fMLP-cytochrom c (neutrophils; 24 hours after last dose): −0,018 ± 0.010 ΔA | OXIDATIVE BURST (PMN) fMLP-cytochrom c (neutrophils; 28 days after last dose): −0,0011 ± 0,0010 ΔA | GRO-α (serum) (GRO-α; 2 h and 30 min after last dose): 109.6 ± 30.35 pg/mL | GRO-α (serum) (GRO-α; 24 hours after last dose): 107.9 ± 27.83 pg/mL | GRO-α (serum) (GRO-α; 28 days after last dose): 90.4 ± 22.32 pg/mL | OXIDATIVE BURST (PMN) fMLP-luminol (stimulated neutrophils; 2 h and 30 min after last dose): 14774 ± 1175 A.U. | OXIDATIVE BURST (PMN) fMLP-luminol (stimulated neutrophils; 24 hours after last dose): 5053 ± 3804 A.U. | OXIDATIVE BURST (PMN) fMLP-luminol (stimulated neutrophils; 28 days after last dose): 9879 ± 13880 A.U. | GLUTATHION PEROXIDASE (PMN) ([1]; 2 h and 30 min after last dose): 5.3 ± 2.9 mU/10^6PMN | GLUTATHION PEROXIDASE (PMN) ([1]; 24 hours after last dose): 1.6 ± 1.3 mU/10^6PMN | GLUTATHION PEROXIDASE (PMN) ([1]; 28 days after last dose): 8.0 ± 5.2 mU/10^6PMN | GLUTATHION REDUCTASE (PMN) (glutathione reductase; 2 h and 30 min after last dose): 7.39 ± 1.23 mU/10^6PMN | GLUTATHION REDUCTASE (PMN) (glutathione reductase; 24 hours after last dose): 7.91 ± 0.87 mU/10^6PMN | GLUTATHION REDUCTASE (PMN) (glutathione reductase; 28 days after last dose): 11.27 ± 2.24 mU/10^6PMN

— patent US20050054587A1, “Novel therapeutic indication of azithromycin for treatment of non-infective inflamatory diseases” (priority 2001, published 2005)
